Assay [1] has as its target T1, human recombinant dopamine D4.2 receptor (Homo sapiens, UniProt P21917, DEL265-296).
T1 construct: expressed in transfected cells
T1 sequence (P21917 with tags, fused parts or gaps DEL265-296): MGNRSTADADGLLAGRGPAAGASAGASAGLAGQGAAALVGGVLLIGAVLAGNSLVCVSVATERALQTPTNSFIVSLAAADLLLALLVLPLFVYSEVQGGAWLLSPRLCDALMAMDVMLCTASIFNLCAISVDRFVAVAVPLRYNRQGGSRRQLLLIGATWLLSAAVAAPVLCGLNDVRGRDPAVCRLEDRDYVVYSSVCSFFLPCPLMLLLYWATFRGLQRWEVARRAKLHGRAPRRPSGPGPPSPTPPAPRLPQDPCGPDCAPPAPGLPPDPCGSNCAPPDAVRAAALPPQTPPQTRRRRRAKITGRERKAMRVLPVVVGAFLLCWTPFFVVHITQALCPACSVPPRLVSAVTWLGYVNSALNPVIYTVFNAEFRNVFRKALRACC
The assay can be described thus: [3H]spiperone receptor binding assay, D4.2 (CHO K1 membranes). The conditions noted are these: [3H]spiperone 0.2 nM, human D4.2, CHO K1 membranes, 60 minutes at 25° C. The text has this:
(§1) A cell line expressing human dopamine D2 (Long form) receptors was purchased from Oregon Health Sciences University, Portland, Ore. The D2 receptor cDNA was subcloned into an expression vector, pRc/CMV. The plasmids were transfected by electroporation into CHO K1 cells. A single stable transfectant, resistant to the antibiotic G418, was isolated and selected for use in the binding studies. For D4 binding, CHO K1 cells stably transfected to express the human recombinant dopamine D4.2 receptor subtype, as described by Shih, et al., "The expression and functional characterization of human dopamine D4.2 receptor in CHO K1 cells," Soc.
(§2) Cells were grown until confluent, after which growth medium was removed and replaced with 0.02% ethylene diamine tetracetate (EDTA) in a phosphate-buffered saline solution (Sigma Chemical Co; St. Louis, Mo.) and scraped from the flasks. The cells were centrifuged at about 1000×g for 10 minutes at 40° C. and then resuspended in TEM buffer (25 mM Tris-HCL, pH 7.4, 5 mM EDTA, and 6 mM MgCl2) for D2 or the D4.2 buffer (50 mM Tris-HCl, pH 7.4, 5 mM EDTA, 1.5 mM CaCl2, 5 mM KCl, and 120 mM NaCl) and homogenized. The membranes were pelleted by centrifugation at 20,000×g at 40° C. for 20 minutes. Then the pellets were resuspended in an appropriate buffer at 1 mL/flask and stored at -70° C. until used in the receptor binding assay.
After 60 minutes incubation at 25° C., the incubations were terminated by rapid filtration through Whatmann GF/B glass fibre filters (soaked for 1 hour in 0.5% polyethylenimine) on a -cell harvester, with three washes of 1 mL ice-cold buffer. […] Nonspecific binding was defined in presence of 1 mM of haloperidol.
(§3) Saturation and competition binding data were analyzed using an iterative nonlinear least-square curve-fitting Ligand program. […] Experimental compounds were made up as stock solutions in dimethyl sulfoxide (DMSO). […] Each observation was carried out in triplicate. To allow these calculations, Kd values were measured for the interaction of various ligands with the receptor. […]

In assay [2] the target is human dopamine D2 (Long form) receptor (Homo sapiens, UniProt P14416). Put plainly: [3H]spiperone receptor binding assay, D2 (Long form) (CHO K1 membranes).
From the text: as §1, with “Soc. Neurosci., 1995;21(Part 1):621.” for “Soc.”
as §2, with “CHO K1 cells expressing either human D2 and D4.2 receptors were grown in 162 cm^2 culture flasks in F12 medium (Gibco Laboratories, Grand Island, N.Y.) supplemented with 10% fetal bovine serum (FBS, Hyclone, Logan, UT) in an atmosphere of 5% Co2 /95% air at 37° C. Cells” for “Cells”
After 60 minutes incubation at 25° C., the incubations were terminated by rapid filtration through Whatmann GF/B glass fibre filters (soaked for 1 hour in 0.5% polyethylenimine) on a -cell harvester, with three washes of 1 mL ice-cold buffer. Individual filter disks containing the bound ligand were placed in counting vials with 4 mL of scintillation fluid (Ready Gel, Beckman Instrument Inc, Fullerton, Calif.) and then counted in a Beckman LS-6800 liquid scintillation counter at an efficiency of 45%. Nonspecific binding was defined in presence of 1 mM of haloperidol.
as §3

Where [3] appears, read: [3H]spiperone 0.2 nM, human D2 (Long form), CHO K1 membranes, 60 minutes at 25° C., read-out: D2 Ki.

Where a name gives a salt, the structure may show the parent alone. Read-outs that look alike come from different tables or passages of the source.

human dopamine D2 (Long form) receptor, sequence (P14416 whole entry): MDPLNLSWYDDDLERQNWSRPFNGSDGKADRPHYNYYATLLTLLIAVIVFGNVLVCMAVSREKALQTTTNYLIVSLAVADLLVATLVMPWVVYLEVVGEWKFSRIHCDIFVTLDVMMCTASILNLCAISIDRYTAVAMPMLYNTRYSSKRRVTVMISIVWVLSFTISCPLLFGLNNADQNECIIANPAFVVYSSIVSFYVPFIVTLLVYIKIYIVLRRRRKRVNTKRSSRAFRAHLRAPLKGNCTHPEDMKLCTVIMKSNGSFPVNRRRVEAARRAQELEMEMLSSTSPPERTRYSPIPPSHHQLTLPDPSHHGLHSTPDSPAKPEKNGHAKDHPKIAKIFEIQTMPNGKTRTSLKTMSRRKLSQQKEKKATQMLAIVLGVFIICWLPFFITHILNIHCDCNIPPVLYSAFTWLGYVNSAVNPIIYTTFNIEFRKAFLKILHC

With `O=c1ccc2ccc(CN3CCN(c4cccc(Cl)c4)CC3)cc2o1` [Example 9, 7-[4-(3-Chloro-phenyl)-piperazin-1-ylmethyl]-chromen-2-one], the inhibition constant (Ki) (in general, the dissociation constant of the complex between target and ligand, obtained from inhibition or displacement) in assay [1] (read-out: D4 Ki) is 23 nM; in assay [2] (setting [3]), over 10000 nM.

Turning to `Cc1cccc(N2CCN(Cc3ccc4oc(=O)ccc4c3)CC2)c1C` [Example 35, 6-[4-(2,3-Dimethyl-phenyl)-piperazin-1-ylmethyl]-chromen-2-one], the values for the Ki in assay [1] (read-out: D4 Ki) and in assay [2] (setting [3]) were 8.8 nM and 3250 nM, respectively.

As for `O=c1ccc2ccc(CN3CCN(c4ccccn4)CC3)cc2o1` [Example 25, 2H-1-Benzopyran-2-one, 7-[[4-(2-pyridinyl)-1-piperazinyl]methyl]-, dihydrochloride], the figures for the Ki in assay [1] (read-out: D4 Ki) and in assay [2] (setting [3]) were 68.2 nM and over 5880 nM, respectively.

Turning to `O=c1ccc2ccc(CN3CCN(c4ccc(F)c(C(F)(F)F)c4)CC3)cc2o1` [Example 15, 7-[4-(4-Fluoro-3-trifluoromethyl-phenyl)-piperazin-1-ylmethyl]-chromen-2-one], the inhibition constant (Ki) in assay [1] (read-out: D4 Ki) was found to be 27.3 nM; in assay [2] (setting [3]), 7120 nM.

On to `O=c1ccc2ccc(CN3CCN(c4cccc(Cl)c4Cl)CC3)cc2o1` [Example 21, 7-[4-(2,3-Dichloro-phenyl)-piperazin-1-ylmethyl]-chromen-2-one], for which the results for the Ki in assay [1] (read-out: D4 Ki) and in assay [2] (setting [3]) were 41.1 nM and 1840 nM, respectively.

Consider `COc1cccc(N2CCN(Cc3ccc4oc(=O)ccc4c3)CC2)c1` [Example 47, 6-[4-(3-Methoxy-phenyl)-piperazin-1-ylmethyl]-chromen-2-one], for which the figures for the Ki in assay [1] (read-out: D4 Ki) and in assay [2] (setting [3]) were 57 nM and 7120 nM, respectively.

For the molecule `O=c1ccc2cc(CN3CCN(c4cccc(Cl)c4Cl)CC3)ccc2o1` [Example 39, 6-[4-(2,3-Dichloro-phenyl)-piperazin-1-ylmethyl]-chromen-2-one], the inhibition constant Ki in assay [1] (read-out: D4 Ki) was found to be 15 nM; in assay [2] (setting [3]), 1200 nM.

As to `Cc1ccc(N2CCN(Cc3ccc4ccc(=O)oc4c3)CC2)cc1C` [Example 3, 7-[4-(3,4-Dimethyl-phenyl)-piperazin-1-ylmethyl]-chromen-2-one], the Ki in assay [1] (D4 Ki) was 13.9 nM; in assay [2] (setting [3]) it was 433 nM.

For `O=c1ccc2cc(CN3CCN(c4ccc(CO)c(F)c4)CC3)ccc2o1` [Example 40, 6-[4-(3-Fluoro-4-hydroxymethyl-phenyl)-piperazin-1-ylmethyl]-chromen-2-one], the Ki in assay [1] (read-out: D4 Ki) was 18 nM; in assay [2] (setting [3]) it was over 5880 nM.

For `O=c1ccc2ccc(CN3CCN(c4ccccc4)CC3)cc2o1` [Example 13, 7-(4-Phenyl-piperazin-1-ylmethyl)-chromen-2-one], the values for the Ki in assay [1] (D4 Ki) and in assay [2] (setting [3]) were 26 nM and 5340 nM, respectively.

On to `Cc1ccc(N2CCN(Cc3ccc4oc(=O)ccc4c3)CC2)cc1` [Example 36, 6-(4-p-Tolyl-piperazin-1-ylmethyl)-chromen-2-one], for which the Ki stood at 10.9 nM in assay [1] (D4 Ki) and 5830 nM in assay [2] (setting [3]).

`Cc1ccc(N2CCN(Cc3ccc4ccc(=O)oc4c3)CC2)cc1Cl` [Example 1, 7-[4-(3-Chloro-4-methyl-phenyl)-piperazin-1-ylmethyl]-chromen-2-one]: the Ki is 6.9 nM in assay [1] (D4 Ki) and over 5880 nM in assay [2].

On to `Cc1cccc(N2CCN(Cc3ccc4ccc(=O)oc4c3)CC2)c1C` [Example 8, 7-[4-(2,3-Dimethyl-phenyl)-piperazin-1-ylmethyl]-chromen-2-one], for which the inhibitory constant (Ki) in assay [1] (read-out: D4 Ki) came out at 19 nM; in assay [2] (setting [3]), 688 nM.

In the case of `O=c1ccc2ccc(CN3CCN(c4cccc(F)c4)CC3)cc2o1` [Example 22, 7-[4-(3-Fluoro-phenyl)-piperazin-1-ylmethyl]-chromen-2-one], the Ki in assay [1] (read-out: D4 Ki) was 44 nM; in assay [2] (setting [3]), 4020 nM.

Regarding `Cc1ccccc1N1CCN(Cc2ccc3ccc(=O)oc3c2)CC1` [Example 4, 7-(4-o-Tolyl-piperazin-1-ylmethyl)-chromen-2-one], the Ki came to 16.3 nM in assay [1] (D4 Ki) and 1940 nM in assay [2] (setting [3]).

`Cc1cccc(N2CCN(Cc3ccc4ccc(=O)oc4c3)CC2)c1` [Example 17, 7-(4-m-Tolyl-piperazin-1-ylmethyl)-chromen-2-one]: the inhibition constant (Ki) in assay [1] (D4 Ki) came to 32 nM; in assay [2] (setting [3]) it was 4400 nM.

For `O=c1ccc2ccc(CN3CCN(c4ccc(CO)c(Cl)c4)CC3)cc2o1` [Example 2, 7-[4-(3-Chloro-4-hydroxymethyl-phenyl)-piperazin-1-ylmethyl]-chromen-2-one], the Ki turned out to be 11 nM in assay [1] (read-out: D4 Ki) and 10600 nM in assay [2] (setting [3]).

In the case of `O=c1ccc2cc(CN3CCN(c4ccccc4Cl)CC3)ccc2o1` [Example 43, 6-[4-(2-Chloro-phenyl)-piperazin-1-ylmethyl]-chromen-2-one], the Ki in assay [1] (read-out: D4 Ki) turned out to be 28 nM; in assay [2] (setting [3]), 218 nM.

Values taken from patent publication US5922719A, “Coumarin dopamine D4 receptor antagonists” (priority 1997, dated 1999).
